Values joined by “and” are separate entries in the source; they are usually repeats but may differ in a detail not shown here. Equal values may be shown once.

The subject of experiment [1] is acetylcholine receptor (AChR). In kind it is binding, Electrophorus electricus.
The subject of the next experiment is opiate receptor (OpR). In kind it is binding, rat.
The subject of experiment [2] is acetylcholine receptor (AChR). In kind it is binding, Electrophorus electricus. The source holds these as a separate data set.

With Triton ™ X-100, the “increase in retention of binding activity of AChR” value in experiment [1] is “more than 90%”.

For the compound `CCCCCCCC[N+](C)(C)CCCS(=O)(=O)[O-]` [Zwittergent ™ 3-08], the “% Activity Increase (AChR membrane activity)” value in experiment [1] worked out at 55%.

In the case of `CN1CC[C@]23CCCC[C@H]2[C@H]1Cc1ccc(O)cc13` [Levorphanol], in the experiment on opiate receptor (OpR), the “Δ% (difference between resistance changes of test and control chips)” value is 10%; the “ΔK.OMEGA. (change in resistance across the biosensor circuit)” value is on record as -160.

As to `CCCCCCCCCC[N+](C)(C)CCCS(=O)(=O)[O-]` [Zwittergent ™ 3-10], in experiment [1], the “% Activity Increase (AChR membrane activity)” value came to 13%.

On to `OC[C@H]1OC(O)[C@H](O)[C@@H](O)[C@@H]1O` (stereo partly shown) [Glucose], for which, in experiment [2], the “% Change with respect to control sensor” value was 3% and 0% and 6% and 5%; the “change in resistance between control and AChR sensors (in words)” value is listed as “no change”.

Source of the values: US5192507A (priority 1991, dated 1993).
